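These data come from cells grown in 96-well plates and exposed to compound for 48 hours at five concentrations. Here, GI50 denotes the concentration required for 50% inhibition of growth. TGI: concentration producing complete growth inhibition.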
How the values were obtained:
Test in all cases: growth of human tumour cells (NCI), 48 h
MOLT-4 leukemia = test system: MOLT-4 leukemia
SR leukemia = test system: SR leukemia
IGROV1 ovarian = test system: IGROV1 ovarian
NCI/ADR-RES ovarian = test system: NCI/ADR-RES ovarian
SF-295 CNS = test system: SF-295 CNS
A549 NSCLC = test system: A549 NSCLC
HCT-15 colon = test system: HCT-15 colon
UACC-257 melanoma = test system: UACC-257 melanoma
K-562 leukemia = test system: K-562 leukemia
A498 renal = test system: A498 renal
DU-145 prostate = test system: DU-145 prostate
U251 CNS = test system: U251 CNS
SF-539 CNS = test system: SF-539 CNS
KM12 colon = test system: KM12 colon
UACC-62 melanoma = test system: UACC-62 melanoma
SF-268 CNS = test system: SF-268 CNS
CAKI-1 renal = test system: CAKI-1 renal
SW-620 colon = test system: SW-620 colon
SK-MEL-5 melanoma = test system: SK-MEL-5 melanoma
M14 melanoma = test system: M14 melanoma
NCI-H23 lung = test system: NCI-H23 lung
SK-OV-3 ovarian = test system: SK-OV-3 ovarian
MALME-3M melanoma = test system: MALME-3M melanoma
HCC-2998 colon = test system: HCC-2998 colon
HT29 colon = test system: HT29 colon
PC-3 prostate = test system: PC-3 prostate
OVCAR-8 ovarian = test system: OVCAR-8 ovarian
HCT-116 colon = test system: HCT-116 colon
NCI-H226 lung = test system: NCI-H226 lung
MDA-MB-468 breast = test system: MDA-MB-468 breast
OVCAR-5 ovarian = test system: OVCAR-5 ovarian
SNB-75 CNS = test system: SNB-75 CNS
UO-31 renal = test system: UO-31 renal
HOP-92 NSCLC = test system: HOP-92 NSCLC
SN12C renal = test system: SN12C renal
OVCAR-3 ovarian = test system: OVCAR-3 ovarian
786-0 renal = test system: 786-0 renal
TK-10 renal = test system: TK-10 renal
OVCAR-4 ovarian = test system: OVCAR-4 ovarian
BT-549 breast = test system: BT-549 breast
NCI-H522 lung = test system: NCI-H522 lung
MDA-MB-231 breast = test system: MDA-MB-231 breast
MCF7 breast = test system: MCF7 breast
RXF 393 renal = test system: RXF 393 renal
COLO 205 colon = test system: COLO 205 colon
LOX IMVI melanoma = test system: LOX IMVI melanoma
HL-60(TB) leukemia = test system: HL-60(TB) leukemia
SK-MEL-28 melanoma = test system: SK-MEL-28 melanoma
NCI-H460 lung = test system: NCI-H460 lung
HS 578T breast = test system: HS 578T breast
CCRF-CEM leukemia = test system: CCRF-CEM leukemia
HOP-62 NSCLC = test system: HOP-62 NSCLC
MDA-MB-435 = test system: MDA-MB-435
EKVX NSCLC = test system: EKVX NSCLC
RPMI-8226 leukemia = test system: RPMI-8226 leukemia
SNB-19 CNS = test system: SNB-19 CNS
T-47D breast = test system: T-47D breast
ACHN renal = test system: ACHN renal

## CC[C@@]1(O)C(=O)OCc2c1cc1n(c2=O)Cc2c-1nc1cc(F)c(C)c3c1c2[C@@H](N)CC3
MOLT-4 leukemia
  GI50: < 0.01 µM
SR leukemia
  GI50: < 0.01 µM
  TGI: > 100 µM
IGROV1 ovarian
  GI50: 0.0261 µM
  TGI: 1.15 µM
NCI/ADR-RES ovarian
  GI50: < 0.01 µM
  TGI: 0.0213 µM
SF-295 CNS
  GI50: < 0.01 µM
  TGI: 0.0425 µM
A549 NSCLC
  GI50: < 0.01 µM
  TGI: 0.456 µM
HCT-15 colon
  GI50: 0.0146 µM
  TGI: 4.89 µM
UACC-257 melanoma
  GI50: 0.0103 µM
  TGI: 0.166 µM
K-562 leukemia
  GI50: < 0.01 µM
  TGI: > 100 µM
A498 renal
  GI50: < 0.0107 µM
  TGI: 0.187 µM
DU-145 prostate
  GI50: < 0.01 µM
  TGI: > 100 µM
U251 CNS
  GI50: < 0.01 µM
  TGI: 0.102 µM
SF-539 CNS
  GI50: < 0.01 µM
  TGI: < 0.01 µM
KM12 colon
  GI50: 0.0184 µM
  TGI: > 100 µM
UACC-62 melanoma
  GI50: < 0.01 µM
  TGI: 0.0146 µM
SF-268 CNS
  GI50: < 0.01 µM
  TGI: > 100 µM
CAKI-1 renal
  GI50: < 0.01 µM
  TGI: 0.0741 µM
SW-620 colon
  GI50: < 0.01 µM
  TGI: 13.1 µM
SK-MEL-5 melanoma
  GI50: < 0.01 µM
  TGI: < 0.01 µM
M14 melanoma
  GI50: < 0.01 µM
  TGI: 0.0279 µM
NCI-H23 lung
  GI50: < 0.01 µM
  TGI: < 0.01 µM
SK-OV-3 ovarian
  GI50: < 0.01 µM
  TGI: 0.135 µM
MALME-3M melanoma
  GI50: 0.011 µM
  TGI: 0.247 µM
HCC-2998 colon
  GI50: 0.0129 µM
  TGI: 0.129 µM
HT29 colon
  GI50: < 0.01 µM
  TGI: 1.04 µM
PC-3 prostate
  GI50: 0.0206 µM
  TGI: > 100 µM
OVCAR-8 ovarian
  GI50: < 0.01 µM
  TGI: 0.116 µM
HCT-116 colon
  GI50: < 0.01 µM
  TGI: 11.5 µM
NCI-H226 lung
  GI50: < 0.01 µM
  TGI: < 0.0197 µM
MDA-MB-468 breast
  GI50: < 0.01 µM
  TGI: < 0.01 µM
OVCAR-5 ovarian
  GI50: < 0.0124 µM
  TGI: 0.801 µM
SNB-75 CNS
  GI50: < 0.01 µM
  TGI: 0.175 µM
UO-31 renal
  GI50: < 0.01 µM
  TGI: 0.0481 µM
HOP-92 NSCLC
  GI50: < 0.01 µM
  TGI: 0.192 µM
SN12C renal
  GI50: < 0.01 µM
  TGI: 0.145 µM
OVCAR-3 ovarian
  GI50: 0.0368 µM
  TGI: 0.635 µM
786-0 renal
  GI50: < 0.01 µM
  TGI: < 0.037 µM
TK-10 renal
  GI50: 0.0611 µM
  TGI: 3.18 µM
OVCAR-4 ovarian
  GI50: 0.0325 µM
  TGI: > 100 µM
BT-549 breast
  GI50: < 0.01 µM
  TGI: 0.111 µM
NCI-H522 lung
  GI50: < 0.01 µM
  TGI: 0.0379 µM
MDA-MB-231 breast
  GI50: 0.0285 µM
  TGI: 2.22 µM
MCF7 breast
  GI50: < 0.01 µM
  TGI: > 100 µM
RXF 393 renal
  GI50: < 0.01 µM
  TGI: < 0.0135 µM
COLO 205 colon
  GI50: 0.0393 µM
  TGI: 0.298 µM
LOX IMVI melanoma
  GI50: < 0.01 µM
  TGI: 0.0101 µM
HL-60(TB) leukemia
  GI50: < 0.01 µM
SK-MEL-28 melanoma
  GI50: 0.111 µM
  TGI: > 100 µM
NCI-H460 lung
  GI50: < 0.01 µM
  TGI: 0.434 µM
HS 578T breast
  GI50: 0.221 µM
  TGI: > 100 µM
CCRF-CEM leukemia
  GI50: < 0.01 µM
HOP-62 NSCLC
  GI50: < 0.01 µM
  TGI: < 0.0494 µM
MDA-MB-435
  GI50: < 0.01 µM
  TGI: 0.625 µM

## N#Cc1c(-c2ccc(F)cc2)nc(SCc2ccccc2)nc1N1CCNCC1
MOLT-4 leukemia
  GI50: 7.07 µM
  TGI: 21.2 µM
SR leukemia
  GI50: 1.92 µM
  TGI: 4.61 µM
IGROV1 ovarian
  GI50: 14.7 µM
  TGI: 28.9 µM
NCI/ADR-RES ovarian
  GI50: 11.7 µM
  TGI: 27.4 µM
SF-295 CNS
  GI50: 15.8 µM
  TGI: 30.1 µM
A549 NSCLC
  GI50: 8.1 µM
  TGI: 21.5 µM
HCT-15 colon
  GI50: 5.05 µM
  TGI: 17.5 µM
UACC-257 melanoma
  GI50: 13.1 µM
  TGI: 26.2 µM
EKVX NSCLC
  GI50: 12 µM
  TGI: 24.8 µM
K-562 leukemia
  GI50: 2.21 µM
  TGI: 5.42 µM
A498 renal
  GI50: 13.1 µM
  TGI: 27.3 µM
DU-145 prostate
  GI50: 15 µM
  TGI: 29 µM
U251 CNS
  GI50: 4.36 µM
  TGI: 16.1 µM
SF-539 CNS
  GI50: 15.7 µM
  TGI: 29.4 µM
KM12 colon
  GI50: 17.1 µM
  TGI: 32.8 µM
UACC-62 melanoma
  GI50: 14.4 µM
  TGI: 28.2 µM
RPMI-8226 leukemia
  GI50: 3.99 µM
  TGI: 17.5 µM
SF-268 CNS
  GI50: 12.9 µM
  TGI: 29.1 µM
CAKI-1 renal
  GI50: 16 µM
  TGI: 29.7 µM
SW-620 colon
  GI50: 3.38 µM
  TGI: 13.1 µM
SNB-19 CNS
  GI50: 14.2 µM
  TGI: 29.3 µM
SK-MEL-5 melanoma
  GI50: 15.7 µM
  TGI: 29.2 µM
M14 melanoma
  GI50: 12 µM
  TGI: 24.8 µM
NCI-H23 lung
  GI50: 15.1 µM
  TGI: 29.3 µM
SK-OV-3 ovarian
  GI50: 16 µM
  TGI: 29.5 µM
MALME-3M melanoma
  GI50: 14.1 µM
  TGI: 28.2 µM
HCC-2998 colon
  GI50: 1.76 µM
  TGI: 3.22 µM
HT29 colon
  GI50: 3.3 µM
  TGI: 10.5 µM
PC-3 prostate
  GI50: 11.8 µM
  TGI: 25.8 µM
OVCAR-8 ovarian
  GI50: 6.21 µM
  TGI: 21.8 µM
HCT-116 colon
  GI50: 3.51 µM
  TGI: 11.6 µM
NCI-H226 lung
  GI50: 13.8 µM
  TGI: 33.4 µM
T-47D breast
  GI50: 10.1 µM
  TGI: 24.8 µM
MDA-MB-468 breast
  GI50: 6.71 µM
  TGI: 21.3 µM
OVCAR-5 ovarian
  GI50: 14.1 µM
  TGI: 27.6 µM
HOP-92 NSCLC
  GI50: 4.2 µM
  TGI: 18.1 µM
SN12C renal
  GI50: 13.8 µM
  TGI: 27.2 µM
OVCAR-3 ovarian
  GI50: 14.3 µM
  TGI: 29.1 µM
786-0 renal
  GI50: 11 µM
  TGI: 25.4 µM
TK-10 renal
  GI50: 14.5 µM
  TGI: 28.4 µM
OVCAR-4 ovarian
  GI50: 15.7 µM
  TGI: 34.2 µM
BT-549 breast
  GI50: 13 µM
  TGI: 26.4 µM
NCI-H522 lung
  GI50: 11.3 µM
  TGI: 25.1 µM
MCF7 breast
  GI50: 3.94 µM
  TGI: 15.3 µM
RXF 393 renal
  GI50: 3.14 µM
  TGI: 14.8 µM
COLO 205 colon
  GI50: 1.66 µM
  TGI: 3.17 µM
LOX IMVI melanoma
  GI50: 1.71 µM
  TGI: 3.33 µM
HL-60(TB) leukemia
  GI50: 4.5 µM
  TGI: 17.3 µM
ACHN renal
  GI50: 14 µM
  TGI: 27.5 µM
SK-MEL-28 melanoma
  GI50: 16.3 µM
  TGI: 30.3 µM
NCI-H460 lung
  GI50: 9.2 µM
  TGI: 22.9 µM
HS 578T breast
  GI50: 14.1 µM
  TGI: 32 µM
CCRF-CEM leukemia
  GI50: 13.9 µM
  TGI: 31 µM
HOP-62 NSCLC
  GI50: 13.2 µM
  TGI: 28.1 µM
MDA-MB-435
  GI50: 16.9 µM
  TGI: 31.5 µM
